From patent US11213499B1, “Use of 3,3′-diselenodipropionic acid (DSePA) as an anticancer agent” (Secretary, Department of Atomic Energy, priority 2020, dated 2022) come the findings set out here.

Common to all, as to format: cell-based
In data set [1] the test system is A549 (Human non-small cell lung adenocarcinoma). The experiment in a line: SRB/MTT anti-proliferative assay, A549. The following applies: 48 hours treatment, read-out: GI50 (Concentration of drug causing 50% inhibition of cell growth). On the procedure: (§1) The anticancer effect of DSePA was evaluated using a panel of twenty-five human cancer cell lines of different tissue origins. Cells were treated with the increasing concentrations (0.1-100 μM) of DSePA for 48 h and viability was monitored by (Sulforhodamine B) SRB assay or MTT assay.
(§2) Cell culture and DSePA synthesis—DSePA was synthesized and characterized as described in our previous reports. Cell lines were cultured in growth medium (DMEM/RPMI) supplemented with 10% FBS, 100 U/ml penicillin and 100 μg/ml streptomycin at 37° C. in a humidified 5% CO2 environment. The stock solution of DSePA was prepared fresh in cell culture medium and diluted with the same to achieve the desired concentrations.
(§3) SRB/MTT Assay—To evaluate the anti-proliferative effect of DSePA, Cells (˜5×10^3) suspended in 100 μl of complete culture medium were seeded in each well of 96 well plates. The cells were allowed to attach and grow for 24 h, treated with desired concentrations of DSePA dissolved in culture medium for 48 h and then processed for SRB/MTT assay as described in literature. The percentage (%) cytotoxicity was calculated from the decrease in absorbance as compared to that of control group.
In general terms: Formazan colour is commonly taken as a measure of viable cells.

The subject of data set [2] is Vero (Monkey kidney transformed epithelial cell line (normal)). Put plainly: SRB/MTT assay, normal Vero cells. On the procedure:
as §1, §2, §3

Data set [3] has as its system CHO (Chinese Hamster Ovary (normal)). Put plainly: SRB/MTT assay, normal CHO cells. On the procedure:
as §1, §2, §3

Like-named read-outs stand apart in the source and are kept apart here.

Take `O=C(O)CC[Se][Se]CCC(=O)O` [DSePA, 3,3′-diselenodipropionic acid]: the GI50 was 10 µM in data set [1]; at most 10 µM in data set [1] (Homo sapiens, A549, 48 h); above 100 µM in data set [2] (Primates, Vero normal cells, 48 hours treatment, SRB/MTT assay, read-out: GI50 (Concentration of drug causing 50% inhibition of cell growth)); above 100 µM in data set [3] (Cricetulus griseus, CHO normal cells, 48 hours treatment, SRB/MTT assay, read-out: GI50 (Concentration of drug causing 50% inhibition of cell growth)). Moreover, the “toxicity in normal cell types” value in data set [2] (Vero, 0.1-100 μM, 48 h) is reported as “did not show toxicity”; in data set [3] (CHO, 0.1-100 μM, 48 h), “did not show toxicity”.
